Legend:
CYP11B1 = molecular target: T1, CYP11B1 (Rattus norvegicus, UniProt P15393); assay: In vivo CYP11B1 assay: plasma corticosterone concentration (PCC) in ACTH-infused conscious rats; details: 10 mg/kg p.o., ACTH infusion
T1 construct: from tissue; host or cells: whole animal: conscious male Sprague-Dawley rats under ACTH infusion (the adrenal gland as site of the enzyme comes from the background, b5)
T1 sequence (P15393 25-499): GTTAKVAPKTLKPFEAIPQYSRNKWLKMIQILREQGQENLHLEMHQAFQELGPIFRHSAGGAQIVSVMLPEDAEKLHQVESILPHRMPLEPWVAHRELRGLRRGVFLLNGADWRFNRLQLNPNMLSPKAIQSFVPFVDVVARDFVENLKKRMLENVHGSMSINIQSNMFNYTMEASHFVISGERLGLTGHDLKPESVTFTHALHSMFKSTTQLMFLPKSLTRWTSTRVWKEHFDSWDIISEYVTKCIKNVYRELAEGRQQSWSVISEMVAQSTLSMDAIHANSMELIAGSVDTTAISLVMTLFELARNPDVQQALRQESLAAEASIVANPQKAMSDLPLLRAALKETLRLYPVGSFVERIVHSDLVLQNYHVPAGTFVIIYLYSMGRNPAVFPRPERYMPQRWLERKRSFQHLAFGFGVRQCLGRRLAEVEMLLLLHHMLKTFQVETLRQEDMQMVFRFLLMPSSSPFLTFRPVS
Description: (§1) The in vivo effects of compounds on plasma aldosterone concentration (PAC) and plasma glucocorticoid (corticosterone) concentration (PCC) were evaluated in conscious rats.
(§2) Male Sprague-Dawley rats (˜400-600 g body weight) were surgically instrumented with a femoral arterial and venous catheter. The catheters were exteriorized from the lower back through a stainless steel spring and swivel system that enabled the rats to move freely at all times. Rats were allowed at least one week to recover from the surgery before initiating the experiments.
(§3) On the morning of the experiment, a pretreatment blood sample was collected on heparin from the arterial catheter. The blood samples were spun in a refrigerated centrifuge to generate plasma. The plasma was stored frozen at −70° C. until the later measurement of PAC and PCC (by radioimmunoassay). Adrenocorticotropic hormone (ACTH(1-24), referred to herein as ACTH) was then administered as an intravenous (i.v.) bolus (100 ng/kg) followed by a continuous i.v. infusion (30 ng/kg/min) for 9 hours. After one hour of infusion, a baseline (time 0) blood sample was withdrawn from the arterial catheter and processed and stored as described above. The rats were then dosed (typically 0.01 to 100 mg/kg) with the test compound p.o. by oral gavage or parenterally via the arterial catheter (i.a.). Compounds were formulated in an appropriate vehicle (e.g., water (p.o.) or saline (i.a.)) at a physiologically compatible volume (typically 1-2 ml/kg). Additional blood samples were withdrawn at 0.083 (i.a. only), 0.25, 0.5, 1, 2, 3, 4, 5, 6, 7, 8, and 24 hours after dosing with compound and processed and stored as above for later determination of PAC, PCC, and plasma compound concentration (by LC/MS/MS). Oral bioavailability and traditional pharmacokinetic (PK) parameters were estimated from the plasma compound concentrations.
(§4) Based on the plasma compound concentration at each dose, the PK/PD (pharmacodynamic) profiles (reduction of PAC and PCC) of each compound were determined.

Rat CYP11B2 = molecular target: T2, Rat CYP11B2 (Rattus norvegicus, UniProt P30099); assay: In vitro rat CYP11B2 assay; assay type: biochemical; details: V79-4 cell homogenate, 11-deoxycorticosterone to aldosterone, SPA
T2 construct: made in house; host or cells: V79-4 cell line #305 (stably selected with geneticin and hygromycin); sonicated homogenate, 500 x g supernatant
T2 sequence (P30099 35-510): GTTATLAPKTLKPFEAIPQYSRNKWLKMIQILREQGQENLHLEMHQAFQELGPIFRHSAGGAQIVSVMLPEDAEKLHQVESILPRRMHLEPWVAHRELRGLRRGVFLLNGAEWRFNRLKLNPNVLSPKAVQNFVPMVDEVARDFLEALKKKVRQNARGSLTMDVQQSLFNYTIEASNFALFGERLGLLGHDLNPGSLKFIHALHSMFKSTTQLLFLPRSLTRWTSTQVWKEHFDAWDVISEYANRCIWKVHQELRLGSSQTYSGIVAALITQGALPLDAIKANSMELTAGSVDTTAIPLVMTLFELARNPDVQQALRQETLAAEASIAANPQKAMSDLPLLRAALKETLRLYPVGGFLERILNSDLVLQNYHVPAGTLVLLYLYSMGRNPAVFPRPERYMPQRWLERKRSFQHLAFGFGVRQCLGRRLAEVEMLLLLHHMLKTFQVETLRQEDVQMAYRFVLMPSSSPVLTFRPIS
Description: (§5) Following 2 days of growth, cells are washed once with PBS, scraped and collected in PBS, and centrifuged at 1,300 rpm for 6 min. […] The sonication procedure is repeated 3 more times, with a 5 min incubation on ice between sonications. The sonicated material is then spun at 500×g for 4 min to remove unbroken cells. The supernatant is brought to a final glycerol concentration of 5%, flash-frozen in liquid nitrogen, and stored at −80° C.
The CYP11B2 assay is performed in 96-well U-bottom non-tissue-culture-treated plates. […] Plates are then centrifuged at 2,400 rpm for 6 min, and 100 μl of supernatant is removed for measurement of aldosterone content by scintillation proximity assay (SPA).
(§6) Measurement of aldosterone is performed using a 96-well plate format. […] Anti-mouse PVT SPA beads (50 μl) are then added to each well and incubated for 4 hr at room temperature prior to counting in a Microbeta plate counter. The amount of aldosterone in each sample is calculated by comparing with a standard curve generated using known quantities of the hormone.
Full concentration-response curves of an inhibitor are performed at least 3 times. The IC50 values are derived using a non-linear least squares curve-fitting program from DBS XLfit.

CYP11B2 = molecular target: T3, CYP11B2 (Rattus norvegicus, UniProt P30099); assay: In vivo assay: plasma aldosterone concentration (PAC) in ACTH-infused conscious rats; details: 10 mg/kg p.o., ACTH infusion
T3 construct: from tissue; host or cells: whole animal: conscious male Sprague-Dawley rats under ACTH infusion (the adrenal gland as site of the enzyme comes from the background, b5)
T3 sequence (P30099 35-510): T2 sequence (P30099 35-510)
Description: as §1, §2, §3, §4

Rat CYP11B1 = molecular target: T4, Rat CYP11B1 (Rattus norvegicus, UniProt P15393); assay: In vitro rat CYP11B1 assay; assay type: biochemical; details: V79-4 cell homogenate, 11-deoxycorticosterone to corticosterone, SPA
T4 construct: made in house; host or cells: V79-4 cell line #259 (stably selected with geneticin and hygromycin); sonicated homogenate, 500 x g supernatant
T4 sequence (P15393 25-499): T1 sequence (P15393 25-499)
Text: Complete EDTA-free protease inhibitor tablets were obtained from Roche Applied Science (Indianapolis, Ind.). Dulbecco's modified Eagle medium (DMEM), antibiotic, geneticin, hygromycin, and fetal bovine serum (FBS) were products of Invitrogen (Carlsbad, Calif.). NADPH Regeneration Solution A and Solution B were purchased from BD Biosciences Clontech (Palo Alto, Calif.). Anti-sheep PVT SPA beads and [1,2,6,7-^3H(N)]corticosterone were acquired from Amersham (Piscataway, N.J.) and PerkinElmer (Boston, Mass.), respectively.
as §5, with “For enzyme preparation, #259 cells were seeded in 150 mm dishes in double-selection medium. Following” for “Following”, “were” for “are”, “was” for “is”, “rest” for “incubation”
The CYP11B1 assays were performed in 96-well U-bottom non-tissue-culture-treated plates. […] Plates were then centrifuged at 2,400 rpm for 6 min, and 50 μl of supernatant was removed for measurement of corticosterone content by scintillation proximity assay (SPA).
as §6, with “corticosterone was” for “aldosterone is”, “Anti-sheep” for “Anti-mouse”, “were” for “are”, “overnight” for “for 4 hr”, “corticosterone” for “aldosterone”, “was” for “is”
Full concentration-response curves of an inhibitor were performed at least 3 times. The IC50 values were derived using a non-linear least squares curve-fitting program from IDBS XLfit.

adrenal steroidogenesis = assay: Pilot single-blind forced-titration study of hormonal effects in patients with primary hyperaldosteronism; assay type: in vivo, human; details: oral 0.5 mg twice daily 2 weeks then 1.0 mg twice daily 2 weeks
Description: A pilot, single-blind, forced-titration study was performed to assess the hormonal effects of a compound of formula (I), 4-[(5R)-6,7-dihydro-5H-pyrrolo[1,2-c]imidazol-5-yl]-3-fluororbenzonitrile dihydrogen phosphate, in patients with diagnosed primary hyperaldosteronism. The clinical study was designed, implemented and reported in accordance with the ICH harmonized tripartite guidelines for good clinical practice with applicable local regulations. Each patient participated in a screening/washout period, a 2-week placebo run-in period, a 4-week treatment period, and a 1-week placebo wash-out. The treatment period consisted of the oral administration of compound of formula (I) twice daily at a dose of 0.5 mg for two weeks followed by a dose increase to 1.0 mg twice daily for another 2 weeks. Blood samples were taken at baseline, day 1 and 2, day 8, day 15, day 22, day 29 and 30 (all at predose i.e., 12 h after the last dose), and at the final study day 36. Each sample was assessed for aldosterone and immunoreactive active renin, 11-deoxycorticosterone, cortisol, 11-deoxycortisol and adrenocorticotropin (ACTH) after subjects were at rest for at least 60 minutes to avoid any postural or stress-induced value changes. Plasma aldosterone was measured using a commercially available radioimmunoassay kit (DPC, France). Plasma Active Renin was measured using the two monoclonal antibodies 3E8 and 125I-4G1 in a commercially available immunoradiometric kit (CisBio, France). Plasma 11-deoxycorticosterone, cortisol and 11-deoxycortisol were measured using a standardized LC-MS/MS method. Plasma ACTH was measured using a commercially available immunoradiometric kit (CisBio, France).
Statistical analysis of the pharmacodynamic biomarker were summarized using descriptive statistics as well as graphical and/or regression methods.

| Structure (SMILES) | % Reduction from baseline PCC t = 1 h (CYP11B1; 1 h after dosing) [%] | % Reduction from baseline PCC 8 h (CYP11B1; 8 h after dosing) [%] | IC50 (Rat CYP11B2) [nM] | % Reduction from baseline PAC t = 1 h (CYP11B2; 1 h after dosing) [%] | % Reduction from baseline PAC 8 h (CYP11B2; 8 h after dosing) [%] | IC50 (Rat CYP11B1) [nM] | plasma 11-deoxycorticosterone (P11DOCS) (adrenal steroidogenesis) | plasma 11-deoxycortisol (P11DOC) (adrenal steroidogenesis) | plasma ACTH levels (adrenal steroidogenesis) | plasma active renin level (adrenal steroidogenesis) | plasma aldosterone (adrenal steroidogenesis) | plasma cortisol levels (adrenal steroidogenesis) |
| --- | --- | --- | --- | --- | --- | --- | --- | --- | --- | --- | --- | --- |
| N#Cc1ccc([C@H]2CCc3cncn32)c(F)c1 (single isomer, unassigned) [4-(6,7-Dihydro-5H-pyrrolo[1,2-c]imidazol-5-yl)-3-fluorobenzonitrile enantiomer B, 4-(6,7-Dihydro-5H-pyrrolo[1,2-c]imidazol-5-yl)-3-fluorobenzonitrile] | 24 | 30 | 110 | 65 | 72 | 495 | – | – | – | – | – | – |
| N#Cc1ccc([C@H]2CCc3cncn32)c(F)c1.O=P(O)(O)O [4-[(5R)-6,7-dihydro-5H-pyrrolo[1,2-c]imidazol-5-yl]-3-fluororbenzonitrile dihydrogen phosphate] | – | – | – | – | – | – | unexpectedly high build-up | accumulation | increased ACTH levels | increased active renin level | potent aldosterone suppression | decreasing cortisol levels |
